“Also recorded” adds a separate entry of the source.
What was measured:
[1] = test system: allergic sheep challenged with Ascaris suum antigen; experiment: Post-antigen airway hyperresponsiveness (AHR), PD400 of inhaled carbachol, in allergic sheep; type: in vivo
Method: (§1) Pulmonary airflow resistance was measured by taking allergic sheep previously verified as dual bronchoconstrictor responders to Ascaris suum antigen. The sheep were intubated with a cuffed nasotracheal tube and pulmonary airflow resistance (RL) was measured by the esophageal balloon catheter technique. Airway responsiveness was determined by first securing cumulative dose response curves to inhaled carbachol (a constrictor agonist) by measuring RL before and after inhalation of buffered saline and after each administration of 10 breaths of increasing concentrations of carbachol (0.25, 0.5, 1.0, 2.0 and 4.0% wt/vol solution). Airway responsiveness was measured by determining the cumulative provocation dose (PD400) of carbachol (in breath units) that increased RL to 400% above baseline. One breath unit was defined as one breath of 1% carbachol solution.
To assess airway responsiveness, cumulative dose response curves to inhaled carbachol were performed by measuring RL before and after inhalation of buffered saline and after each administration of 10 breaths of increasing concentrations of carbachol (0.25, 0.5, 1.0, 2.0, and 4.0% wt/vol solution). Airway responsiveness was measured by determining the cumulative provocation dose (PD400) of carbachol (in breath units) that increased RL to 400% above baseline. One breath unit was defined as one breath of 1% carbachol solution.
(§2) For airway studies, each animal's baseline airway responsiveness (PD400) was determined and then, on different experimental days, the test sheep underwent airway challenge with Ascaris suum antigen. RL was measured to establish baseline, then measured again immediately after antigen challenge and hourly for an eight hour period and then a post challenge PD400 was measured 24 hours after antigen challenge. In each of the Figures presented herein, FIGS. 1A, 2A, 3A etc. present day two data measured on an hourly basis for the eight hour period and contain control data (closed circles) and drug treatment data (open circles or triangles (closed or open)). The drug treatment experiments were conducted on the same animals used in the control studies but after a period of several weeks following the day 3 PD400 measurements. FIGS. 1B, 2B, 3B etc. contain the day one baseline PD400 data and day three PD400 data following antigen challenge in control or drug treated animals.
(§3) Data were expressed or may be expressed as (a) mean+/−SE % change of RL and (b) PD400 in breath units. Data were also expressed as (c) % protection of Early Airway Response (EAR, for 0-4 hours) and Late Airway Response (LAR, for 4-8 hours), as estimated by area under the curve for EAR and LAR respectively. And (d) AHR %
Thus, the numbers in the Figures as presented were obtained by the formula: Baseline PD400-drugantigenPD400 was x-y;Baseline PD400-ControlantigenPD400 was x-z. x-y/x-z×100=n. 100−n=X % protection in AHR.

[2] = 0.5 mg/kg QD x 4 days oral versus i.v., sheep, listed as 2,5-anhydro-3-O-(α-L-idopyranosyl)-D-mannitol hepta-O-sulfate sodium salt
[3] = test system: allergic sheep challenged with Ascaris suum antigen; experiment: Antigen-induced early and late airway responses (EAR, LAR), pulmonary airflow resistance RL, in allergic sheep; type: in vivo
Method: as §1
To illustrate the effectiveness of the formulations according to the invention to treat and alleviate allergen related diseases and conditions, including but not limited to the specific diseases and conditions recited herein, sheep were assessed in multiple experiments which compared various formulations containing no active ingredient to animals which were provided formulations comprising a compound of formula I (SSS-02). To measure pulmonary airflow resistance, the sheep were intubated with a cuffed nasotracheal tube and pulmonary airflow resistance (RL) was measured by the esophageal balloon catheter technique. These methods are accepted and well known methods found in the literature.
as §2, §3

[4] = inhaled multiple dose 10 mg x 3, n=6
[5] = inhaled single dose 10 mg, 30 min before antigen, n=5
[6] = single oral dose 0.5 mg/kg, 90 min before antigen, n=5
[7] = single oral dose 1 mg/kg, 90 min before antigen, n=5
[8] = i.v. 0.5 mg/kg QD for 4 days, last dose 90 min before antigen, n=5
[9] = inhaled multiple dose 10 mg x 3, n=6, sodium salt
[10] = oral 0.5 mg/kg BID x 7 doses, last dose 90 min before antigen, n=5
[11] = oral 0.5 mg/kg x 3 doses, one every 12 h, antigen 90 min after last dose, n=8
[12] = oral 1 mg/kg x 3 doses, one every 12 h, antigen 90 min after last dose, n=8
[13] = oral liquid 0.5 mg/kg QD for 4 days, last dose 90 min before antigen, n=5

SMILES: O=S(=O)([O-])OC[C@@H]1O[C@@H](O[C@H]2[C@H](OS(=O)(=O)[O-])[C@@H](COS(=O)(=O)[O-])O[C@@H]2COS(=O)(=O)[O-])[C@H](OS(=O)(=O)[O-])[C@@H](OS(=O)(=O)[O-])[C@@H]1OS(=O)(=O)[O-].[Na+].[Na+].[Na+].[Na+].[Na+].[Na+].[Na+] [SSS-056-01, 2,5-anhydro-3-O-(α-L-idopyranose)-D-mannitol-hepta-O-sulfate-hepta sodium salt]
- inhibition of AHR ([1]; i.v. 0.5 mg/kg QD for 4 days, PD400 24 h post-antigen, n=5): 100%
- inhibition of AHR [1, 4]: 100%
- inhibition of AHR [1, 5]: 100%
- inhibition of AHR ([1]; oral 0.5 mg/kg BID x 7 doses, n=5): 100%
- inhibition of AHR ([1]; oral 0.5 mg/kg x 3 doses, one every 12 h, n=8): 100%
- inhibition of AHR ([1]; oral 1 mg/kg x 3 doses, one every 12 h, n=8): 100%
- inhibition of AHR ([1]; oral liquid 0.5 mg/kg QD for 4 days, PD400 24 h post-antigen, n=5): 100%
- inhibition of AHR [1, 6]: 100%
- inhibition of AHR [1, 7]: 100%
- bioavailability of oral dose versus intravenous dose [2]: comparable bioavailability
- inhibition of EAR [3, 8]: 77%
- inhibition of LAR [3, 8]: 92%
- inhibition of LAR [3, 4]: 75%
- effect on EAR [3, 9]: without an effect; also recorded: no significant cumulative effect
- effect on LAR (in words) [3, 9]: did have an effect on LAR; also recorded: did inhibit LAR
- effect on EAR, LAR and AHR ([3]; inhaled single dose 5 mg, 30 min before antigen, n=5): ineffective
- effect on EAR [3, 5]: without an effect
- inhibition of LAR [3, 5]: 75%
- effect on EAR, LAR and AHR ([3]; oral 0.25 mg/kg x 3 doses, one every 12 h, antigen 90 min after last dose, n=8): ineffective
- inhibition of EAR [3, 10]: 76%
- inhibition of LAR [3, 10]: 96%
- inhibition of EAR [3, 11]: 30%
- inhibition of LAR [3, 11]: 85%
- inhibition of EAR [3, 12]: 54%
- inhibition of LAR [3, 12]: 87%
- inhibition of EAR [3, 13]: 77%
- inhibition of LAR [3, 13]: 95%
- effect on EAR, LAR and AHR ([3]; single oral dose 0.25 mg/kg, 90 min before antigen, n=5): ineffective
- effect on EAR [3, 6]: without an effect
- inhibition of LAR [3, 6]: 71%
- effect on EAR [3, 7]: without an effect
- inhibition of LAR [3, 7]: 77%
